Peptide text beside a SMILES is read from it. * marks the point of attachment. Biotin = O=C1N[C@H]2[C@H](CS[C@H]2CCCCC(=O)*)N1
Experiments:
Test in all cases: G' assay (10 uM PL peptide), results of TABLE 7 and TABLE 12
Type in all cases: binding
[1] = target: T1, PDZ protein (GST-PDZ fusion) (Homo sapiens, UniProt O75970)
T1 construct: made in house; host or cells: E. coli (DH5alpha, BL21 or JM109)
In short: (§1)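 Binding classes derive from A450 nm of bound biotin-tagged PL peptide. A score of 5 needs A450 above 4 in more than two repeats.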

[2] = target: T2, PDZ protein (GST-PDZ fusion) (Homo sapiens, UniProt Q02410)
T2 construct: made in house; host or cells: E. coli (DH5alpha, BL21 or JM109)
T2 sequence (Q02410 1-837): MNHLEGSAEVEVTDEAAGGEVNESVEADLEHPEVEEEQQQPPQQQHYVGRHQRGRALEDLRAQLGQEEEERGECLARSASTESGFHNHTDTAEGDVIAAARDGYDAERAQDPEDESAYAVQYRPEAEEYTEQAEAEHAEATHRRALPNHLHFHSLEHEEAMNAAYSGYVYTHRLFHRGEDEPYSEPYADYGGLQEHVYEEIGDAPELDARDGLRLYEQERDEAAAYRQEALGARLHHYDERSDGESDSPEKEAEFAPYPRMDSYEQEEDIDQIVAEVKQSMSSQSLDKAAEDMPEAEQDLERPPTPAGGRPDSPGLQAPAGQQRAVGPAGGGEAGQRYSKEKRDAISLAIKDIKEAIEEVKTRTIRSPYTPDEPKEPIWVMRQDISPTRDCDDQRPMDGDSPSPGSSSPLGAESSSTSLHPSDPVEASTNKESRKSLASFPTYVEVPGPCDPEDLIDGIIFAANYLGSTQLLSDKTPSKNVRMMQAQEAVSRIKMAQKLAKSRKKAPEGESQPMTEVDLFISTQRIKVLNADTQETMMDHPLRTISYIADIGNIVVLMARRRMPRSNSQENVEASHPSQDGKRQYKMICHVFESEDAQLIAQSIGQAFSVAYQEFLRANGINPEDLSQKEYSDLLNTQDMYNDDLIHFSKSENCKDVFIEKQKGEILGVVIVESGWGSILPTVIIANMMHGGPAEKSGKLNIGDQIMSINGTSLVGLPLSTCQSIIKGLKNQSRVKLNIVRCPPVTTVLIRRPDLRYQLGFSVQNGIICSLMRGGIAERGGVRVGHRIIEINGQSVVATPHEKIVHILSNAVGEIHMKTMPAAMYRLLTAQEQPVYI
In short: as §1

[3] = target: T3, PDZ protein (GST-PDZ fusion) (Homo sapiens, UniProt Q96JH8); settings: PDZ FLJ 10324, PDZ Domain 1
T3 construct: made in house; host or cells: E. coli (DH5alpha, BL21 or JM109)
T3 sequence (Q96JH8 1-1075): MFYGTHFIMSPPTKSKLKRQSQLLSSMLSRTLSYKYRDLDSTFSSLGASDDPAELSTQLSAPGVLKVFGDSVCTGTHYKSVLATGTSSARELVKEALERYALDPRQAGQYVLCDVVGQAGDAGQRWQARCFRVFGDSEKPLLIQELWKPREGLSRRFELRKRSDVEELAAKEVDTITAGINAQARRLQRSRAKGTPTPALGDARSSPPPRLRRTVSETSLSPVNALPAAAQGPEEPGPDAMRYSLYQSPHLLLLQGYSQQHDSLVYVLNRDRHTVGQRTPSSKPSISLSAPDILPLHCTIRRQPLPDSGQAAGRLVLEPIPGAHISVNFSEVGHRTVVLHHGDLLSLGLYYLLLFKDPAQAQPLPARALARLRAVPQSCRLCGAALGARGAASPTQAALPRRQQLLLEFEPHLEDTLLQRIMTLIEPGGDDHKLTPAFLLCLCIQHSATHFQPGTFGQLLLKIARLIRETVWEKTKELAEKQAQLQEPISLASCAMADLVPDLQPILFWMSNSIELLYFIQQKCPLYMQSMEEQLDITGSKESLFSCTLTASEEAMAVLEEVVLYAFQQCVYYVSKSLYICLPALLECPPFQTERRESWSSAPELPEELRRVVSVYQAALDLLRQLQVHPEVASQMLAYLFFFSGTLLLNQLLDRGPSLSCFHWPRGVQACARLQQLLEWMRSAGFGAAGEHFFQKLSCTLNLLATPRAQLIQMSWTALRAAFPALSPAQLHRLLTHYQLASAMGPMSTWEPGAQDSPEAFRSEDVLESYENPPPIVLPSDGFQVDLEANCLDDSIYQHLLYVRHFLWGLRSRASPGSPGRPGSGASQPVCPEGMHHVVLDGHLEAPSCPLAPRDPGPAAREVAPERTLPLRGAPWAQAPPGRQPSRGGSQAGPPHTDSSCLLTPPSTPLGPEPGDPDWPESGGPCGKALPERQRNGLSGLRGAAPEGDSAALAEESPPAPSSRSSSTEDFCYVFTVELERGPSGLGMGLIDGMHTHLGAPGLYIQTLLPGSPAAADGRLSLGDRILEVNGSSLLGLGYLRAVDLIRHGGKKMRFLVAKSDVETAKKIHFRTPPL
In short: as §1

T1 sequence (O75970 whole entry, the tested form may be a part): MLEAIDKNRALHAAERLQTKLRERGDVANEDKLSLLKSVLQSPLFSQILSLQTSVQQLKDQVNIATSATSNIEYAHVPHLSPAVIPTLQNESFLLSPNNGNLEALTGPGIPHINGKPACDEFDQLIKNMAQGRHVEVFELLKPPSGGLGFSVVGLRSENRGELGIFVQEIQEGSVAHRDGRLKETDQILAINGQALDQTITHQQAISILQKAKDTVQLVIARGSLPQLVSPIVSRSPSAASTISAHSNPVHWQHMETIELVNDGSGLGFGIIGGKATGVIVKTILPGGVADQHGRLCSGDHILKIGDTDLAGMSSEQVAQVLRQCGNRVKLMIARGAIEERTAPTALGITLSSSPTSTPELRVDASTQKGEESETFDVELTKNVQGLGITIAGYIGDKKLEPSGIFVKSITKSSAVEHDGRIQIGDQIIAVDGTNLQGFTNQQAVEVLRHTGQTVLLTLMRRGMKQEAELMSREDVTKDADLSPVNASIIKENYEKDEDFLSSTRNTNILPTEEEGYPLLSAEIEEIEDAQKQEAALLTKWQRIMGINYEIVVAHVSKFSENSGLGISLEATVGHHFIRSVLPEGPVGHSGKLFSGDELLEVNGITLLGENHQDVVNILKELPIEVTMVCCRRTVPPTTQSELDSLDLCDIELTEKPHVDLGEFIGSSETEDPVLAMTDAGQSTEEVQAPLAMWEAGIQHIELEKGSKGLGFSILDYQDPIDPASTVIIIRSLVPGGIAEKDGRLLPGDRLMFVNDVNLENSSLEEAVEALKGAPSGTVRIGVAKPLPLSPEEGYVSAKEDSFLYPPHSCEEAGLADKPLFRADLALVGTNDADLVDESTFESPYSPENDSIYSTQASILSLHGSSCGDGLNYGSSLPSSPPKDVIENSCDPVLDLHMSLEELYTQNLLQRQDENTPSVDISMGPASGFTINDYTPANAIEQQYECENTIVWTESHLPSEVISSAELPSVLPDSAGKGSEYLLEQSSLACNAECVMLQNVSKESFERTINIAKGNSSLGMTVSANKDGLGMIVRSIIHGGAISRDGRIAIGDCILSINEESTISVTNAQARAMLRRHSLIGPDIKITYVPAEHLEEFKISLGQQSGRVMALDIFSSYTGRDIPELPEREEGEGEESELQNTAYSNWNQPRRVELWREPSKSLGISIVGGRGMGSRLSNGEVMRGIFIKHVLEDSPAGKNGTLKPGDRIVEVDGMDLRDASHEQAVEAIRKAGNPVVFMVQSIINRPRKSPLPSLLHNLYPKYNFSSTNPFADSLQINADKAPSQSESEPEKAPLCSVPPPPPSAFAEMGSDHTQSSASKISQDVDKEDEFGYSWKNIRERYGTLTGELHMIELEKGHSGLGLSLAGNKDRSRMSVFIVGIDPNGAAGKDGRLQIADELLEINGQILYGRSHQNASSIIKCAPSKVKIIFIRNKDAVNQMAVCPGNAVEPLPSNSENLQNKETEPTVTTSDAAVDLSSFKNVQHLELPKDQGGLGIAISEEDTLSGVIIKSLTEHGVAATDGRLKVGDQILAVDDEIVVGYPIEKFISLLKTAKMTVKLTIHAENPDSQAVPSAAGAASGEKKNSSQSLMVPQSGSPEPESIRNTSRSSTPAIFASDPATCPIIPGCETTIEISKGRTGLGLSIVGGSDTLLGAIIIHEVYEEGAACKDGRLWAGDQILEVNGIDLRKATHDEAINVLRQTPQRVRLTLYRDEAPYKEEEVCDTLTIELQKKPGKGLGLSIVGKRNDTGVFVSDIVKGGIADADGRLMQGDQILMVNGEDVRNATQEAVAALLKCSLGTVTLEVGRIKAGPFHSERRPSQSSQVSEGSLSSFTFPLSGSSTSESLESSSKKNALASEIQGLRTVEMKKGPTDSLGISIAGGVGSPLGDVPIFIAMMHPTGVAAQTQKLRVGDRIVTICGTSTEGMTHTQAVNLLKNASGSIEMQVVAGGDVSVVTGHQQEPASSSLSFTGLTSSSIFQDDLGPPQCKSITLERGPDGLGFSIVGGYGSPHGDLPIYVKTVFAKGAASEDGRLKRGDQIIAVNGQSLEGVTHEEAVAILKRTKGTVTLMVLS

Classification ([1]; PDZ MUPP-1, PDZ Domain 1) | Classification ([1]; PDZ MUPP-1, PDZ Domain 2) | Classification ([1]; PDZ MUPP-1, PDZ Domain 3) | Classification ([1]; PDZ MUPP-1, PDZ Domain 5) | Classification ([1]; PDZ MUPP-1, PDZ Domain 7) | Classification ([1]; PDZ MUPP-1, PDZ Domain 9) | Classification ([1]; PDZ MUPP-1, PDZ Domain 10) | Classification ([1]; PDZ MUPP-1, PDZ Domain 11) | Classification ([2]; PDZ Mint 1, PDZ Domain 1) | Classification ([2]; PDZ Mint 1, PDZ Domain 1, 2) | Classification [3] | SMILES | Classification ([1]; PDZ MUPP-1, PDZ Domain 10, PL peptide 10 uM) | Classification ([1]; PDZ MUPP-1, PDZ Domain 11, Protein Optimal Conc 5) | Classification ([2]; PDZ Mint 1, PDZ Domain 1, 2, PL peptide 10 uM) | Classification ([2]; PDZ Mint 1, PDZ Domain 2, PL peptide 10 uM) | Classification ([3]; Protein Optimal Conc 5)
– | – | – | – | – | – | – | – | – | – | – | CC[C@H](C)[C@H](NC(=O)[C@H](CCCCN)NC(=O)[C@@H](NC(=O)[C@H](CO)NC(=O)[C@@H]1CCCN1C(=O)[C@H](Cc1ccccc1)NC(=O)[C@@H](NC(=O)[C@@H](NC(=O)[C@H](CCCNC(=N)N)NC(=O)[C@H](CCC(=O)O)NC(=O)[C@H](CC(C)C)NC(=O)[C@H](CC(C)C)NC(=O)[C@H](CC(C)C)NC(=O)[C@@H](NC(=O)CNC(=O)[C@@H](NC(=O)CCCC[C@@H]1SC[C@@H]2NC(=O)N[C@@H]21)C(C)C)[C@@H](C)O)C(C)C)[C@@H](C)CC)C(C)C)C(=O)N[C@@H](C)C(=O)N[C@H](C(=O)N[C@@H](CC(C)C)C(=O)N[C@H](C(=O)O)C(C)C)[C@@H](C)O [Adenovirus E4 Type9] | 1 (A450 nm 0-1) | 5 (A450 nm of 4 more than 2× repeated) | 2 (A450 nm 1-2) | 2 (A450 nm 1-2) | 3 (A450 nm 2-3)
1 (A450 nm 0-1) | 1 (A450 nm 0-1) | 3 (A450 nm 2-3) | 2 (A450 nm 1-2) | 3 (A450 nm 2-3) | 3 (A450 nm 2-3) | 1 (A450 nm 0-1) | 5 (A450 nm of 4 more than 2× repeated) | 3 (A450 nm 2-3) | 5 (A450 nm of 4 more than 2× repeated) | 5 (A450 nm of 4 more than 2× repeated) | CC[C@H](C)[C@H](NC(=O)[C@H](Cc1ccc(O)cc1)NC(=O)[C@@H](NC(=O)[C@@H]1CCCN1C(=O)[C@H](CCC(N)=O)NC(=O)[C@H](CCC(=O)O)NC(=O)[C@H](CCC(N)=O)NC(=O)[C@H](C)NC(=O)[C@@H](NC(=O)[C@H](CC(C)C)NC(=O)[C@H](CC(C)C)NC(=O)[C@H](CCCNC(=N)N)NC(=O)[C@H](Cc1ccc(O)cc1)NC(=O)[C@H](CCSC)NC(=O)[C@H](C)NC(=O)[C@H](C)NC(=O)[C@@H]1CCCN1C(=O)[C@H](CCSC)NC(=O)[C@@H](NC(=O)[C@H](CCCCN)NC(=O)CCCC[C@@H]1SC[C@@H]2NC(=O)N[C@@H]21)[C@@H](C)O)[C@@H](C)O)C(C)C)C(=O)O [MINT-1] (Biotin-KTMPAAMYRLLTAQEQPVYI-OH; C-terminus assumed) | – | – | – | – | –

From patent US20050282743A1, “Molecular interactions in cells” (Arbor Vita Corporation, priority 2001, published 2005)
